# US9474790B2, “Stable, protracted GLP-1/glucagon receptor co-agonists for medical use” (Novo Nordisk A/S, priority 2013, dated 2016)
# Numbered stars: 1 amine (or outer) side, 2 acyl side, 3 side chain; on linkers, the order of the positions; unused ones are H or OH. Bridge positions count the residues as written; N and C are the ends. Square brackets hold non-standard residues; d marks the D form. Side chains are listed from the residue outwards. Peptide text beside a SMILES is read from it. I, II: the chains in the order shown. * marks the point of attachment. C18 diacid = O=C(O)CCCCCCCCCCCCCCCCC(=O)*; γGlu = O=C(O)[C@H](CCC(=O)[*:2])N[*:1]; Ac4c = NC1(C(=O)O)CCC1; AEEA = NCCOCCOCC(=O)O; Aib = CC(C)(N)C(=O)O
# Experiments:
# human glucagon receptor = biological target: T1, human glucagon receptor (Homo sapiens, UniProt P47871); experiment: Glucagon receptor binding, 125I-glucagon displacement SPA on isolated membranes; conditions: displacement of 125I-glucagon from membranes; read-out: IC50 GlucR
# T1 construct: expressed in transfected cells; host or cells: BHK cells (parent BHK570, CRE luciferase clone BHK/KZ10-20-48), clone pLJ6'-4-25
# T1 sequence (P47871 26-477): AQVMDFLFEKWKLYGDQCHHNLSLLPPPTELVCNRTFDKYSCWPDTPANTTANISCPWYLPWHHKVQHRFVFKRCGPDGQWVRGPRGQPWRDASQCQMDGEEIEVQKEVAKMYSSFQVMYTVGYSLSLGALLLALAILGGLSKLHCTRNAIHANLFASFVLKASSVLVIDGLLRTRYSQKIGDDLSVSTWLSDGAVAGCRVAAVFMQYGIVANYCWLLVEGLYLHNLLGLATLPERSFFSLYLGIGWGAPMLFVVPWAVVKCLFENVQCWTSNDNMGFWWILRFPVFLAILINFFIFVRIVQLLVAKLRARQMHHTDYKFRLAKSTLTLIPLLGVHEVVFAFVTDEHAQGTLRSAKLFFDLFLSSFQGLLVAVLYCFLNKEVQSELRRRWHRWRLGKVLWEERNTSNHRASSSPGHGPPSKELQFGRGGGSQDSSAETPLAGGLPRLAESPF
# Method: The purpose of this assay was to test the in vitro receptor binding activity (i.e. affinity) of the glucagon derivatives of the invention. The receptor binding activity is a measure of affinity of a derivative for the human glucagon receptor.
# The receptor binding of each compound to the human glucagon receptor was measured in a displacement binding assay. In this type of assay a labelled ligand (in this case 125I-glucagon) is bound to the receptor. Each derivative was added in a series of concentrations to isolated membranes containing the human glucagon receptor and displacement of the labelled ligand is monitored. The receptor binding was reported as the concentration at which half of the labelled ligand is displaced from the receptor, the IC50 value.
# In order to test the binding of the derivatives to albumin, the assay may be performed in a very low concentration of serum albumin (max. 0.001% final assay concentration) as well as in the presence of a higher concentration of serum albumin (0.2% final assay concentration). An increase of the IC50 value, in the presence of serum albumin indicates an affinity to serum albumin and represents a method to predict a protracted pharmacokinetic profile of the test substance in animal models.
# The following chemicals were used in the assay: DMEM w Glutamax (Gibco 61965-026), Pen/strep (Invitrogen 15140-122), G418 (Invitrogen 10131-027), Versene (Gibco 15040), 1 M Hepes (Gibco 15630), PBS (Invitrogen 14190-094), fetal calf serum (Invitrogen 16140-071), MgCl2 (Merck 1.05832.1000), EDTA (Invitrogen 15575-038), CaCl2 (Sigma, C5080), Tween 20 (Amresco 0850C335), ovalbumin (Sigma A5503), SPA particles (wheat germ agglutinin (WGA) SPA beads, Perkin Elmer RPNQ0001), [125I]-glucagon (produced in-house), OptiPlate™-96 (Packard 6005290).
# HME buffer consisted of 25 mM HEPES, 2 mM MgCl2 and 1 mM EDTA, and pH was adjusted to 7.4. Assay buffer consisted of 50 mM HEPES supplemented with 5 mM MgCl2, 1 mM CaCl2, 0.02% Tween 20 and 0.1% Ovalbumin, and pH was adjusted to 7.4.
# The cells used in this assay (clone BHK hGCGR A3*25) were BHK cells stable transfected with an expression plasmid containing the cDNA encoding the human glucagon receptor.
# The cells were grown at 5% CO2 in DMEM, 10% fetal calf serum, 1% Pen/Strep (Penicillin/Streptomycin) and 1.0 mg/ml of the selection marker G418. To make a membrane preparation the cells were grown to approximately 80% confluence. The cells were washed twice in phosphate-buffered saline and harvested. The cells were pelleted using a brief centrifugation and the cell pellet was kept on ice. Lyse the cells by adding approx. 5 ml HME buffer, mix by pipetting and snap freeze in liquid nitrogen. Thaw quickly and add HME buffer to 10 ml. The cell pellet was homogenised with an ULTRA-THURRAX dispersing instrument for 20-30 sec. The homogenate was centrifuged at 20.000×G, 4° C. for 10 min. The pellet was re-suspended (homogenised) in 1-2 ml HME buffer. The protein concentration was determined. The membranes were aliquoted and snap-frozen in liquid nitrogen and stored at minus 80° C.
# 1. For the receptor binding assay, 50 μl of the assay buffer was added to each well of an assay plate.
# 2. Test compounds were serially diluted to give the following concentrations: 8×10EE-7 M, 8×10EE-8 M, 8×10EE-9 M, 8×10EE-10 M, 8×10EE-11 M, 8×10EE-12 M and 8×10EE-13 M. Twenty-five μl were added to appropriate wells in the assay plate.
# 3. Cell membrane aliquots were thawed and diluted to their working concentration. Fifty μl were added to each well in the assay plate.
# 4. WGA SPA beads were suspended in assay buffer at 20 mg/ml. The suspension was diluted to 10 mg/ml in assay buffer just prior to addition to the assay plate. Fifty μl were added to each well in the assay plate.
# 5. The incubation was started by adding 25 μl of 480 pM solution of [125I]-glucagon to each well of the assay plate. A 25 μl aliquot was reserved for measuring total counts/well.
# 6. The assay plate was incubated for 2 h at 25° C.
# 7. […]
# [1] = Chemical stability assessment by RP-UPLC; format: physicochemical; conditions: 333 μM, 8 mM phosphate buffer pH 7.3, 37° C. vs 5° C.
# Outline: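 Purity loss = (purity after 14 days at 5° C. minus that at 37° C.) relative to the 5° C. value, purity being main-peak area % by RP-UPLC with UV at 215 nm. Samples were 333 μM in 8 mM phosphate, pH 7.3; gradient adjusted for outlying retention times.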
IC50 (human glucagon receptor),Purity loss; 14 days at 37° C. [1],Structure (SMILES)
5.6 nM,2%,"CC(C)C[C@H](NC(=O)[C@H](Cc1ccc(O)cc1)NC(=O)[C@H](CCCCN)NC(=O)[C@H](CO)NC(=O)[C@H](CC(C)C)NC(=O)[C@H](CC(=O)O)NC(=O)[C@H](CO)NC(=O)[C@@H](NC(=O)[C@H](Cc1ccccc1)NC(=O)[C@@H](NC(=O)CNC(=O)[C@H](CCC(N)=O)NC(=O)C(C)(C)NC(=O)[C@@H](N)Cc1c[nH]cn1)[C@@H](C)O)[C@@H](C)O)C(=O)N[C@@H](CC(=O)O)C(=O)N[C@@H](C)C(=O)N[C@@H](CCCNC(=N)N)C(=O)N[C@@H](CCCNC(=N)N)C(=O)N[C@@H](C)C(=O)N[C@@H](CCCNC(=N)N)C(=O)N[C@@H](CCC(=O)O)C(=O)N[C@@H](Cc1ccccc1)C(=O)N[C@H](C(=O)N[C@@H](CCC(N)=O)C(=O)N[C@@H](Cc1c[nH]c2ccccc12)C(=O)N[C@@H](CC(C)C)C(=O)N[C@@H](CC(C)C)C(=O)N[C@@H](CCCCNC(=O)CC[C@H](NC(=O)CC[C@H](NC(=O)COCCOCCNC(=O)COCCOCCNC(=O)CC[C@H](NC(=O)CCCCCCCCCCCCCCCCC(=O)O)C(=O)O)C(=O)O)C(=O)O)C(=O)N[C@H](C(N)=O)[C@@H](C)O)C(C)C [Example 43, N^ε28-[(4S)-4-carboxy-4-[[(4S)-4-carboxy-4-[[2-[2-[2-[[2-[2-[2-[[(4S)-4-carboxy-4-(17-carboxyheptadecanoylamino)butanoyl]amino]ethoxy]ethoxy]acetyl]amino]ethoxy]ethoxy]acetyl]amino]butanoyl]amino]butanoyl]-[Aib2,Leu10,Ala16,Arg20,Glu21,Leu27,Lys28]-Glucagon amide] (H-H[Aib]QGTFTSDLSKYLDARRAREFVQWLLK([γGlu-γGlu-AEEA-AEEA-γGlu-C18 diacid])T-NH2; N-terminus assumed)"
1.2 nM,1%,"CC(C)C[C@H](NC(=O)[C@H](Cc1ccc(O)cc1)NC(=O)[C@H](CCCCN)NC(=O)[C@H](CO)NC(=O)[C@H](CC(C)C)NC(=O)[C@H](CC(=O)O)NC(=O)[C@H](CO)NC(=O)[C@@H](NC(=O)[C@H](Cc1ccccc1)NC(=O)[C@@H](NC(=O)CNC(=O)[C@H](CCC(N)=O)NC(=O)C(C)(C)NC(=O)[C@@H](N)Cc1c[nH]cn1)[C@@H](C)O)[C@@H](C)O)C(=O)N[C@@H](CCC(=O)O)C(=O)N[C@@H](CO)C(=O)N[C@@H](CCCNC(=N)N)C(=O)N[C@@H](CCCNC(=N)N)C(=O)N[C@@H](C)C(=O)N[C@@H](CCCNC(=N)N)C(=O)N[C@@H](CCC(=O)O)C(=O)N[C@@H](Cc1ccccc1)C(=O)N[C@H](C(=O)N[C@@H](CCC(N)=O)C(=O)N[C@@H](Cc1c[nH]c2ccccc12)C(=O)N[C@@H](CC(C)C)C(=O)N[C@@H](CC(C)C)C(=O)N[C@@H](CCCCNC(=O)CC[C@H](NC(=O)CC[C@H](NC(=O)CC[C@H](NC(=O)CCCCCCCCCCCCCCCCC(=O)O)C(=O)O)C(=O)O)C(=O)O)C(=O)N[C@H](C(N)=O)[C@@H](C)O)C(C)C [Example 41, N^ε28-[(4S)-4-carboxy-4-[[(4S)-4-carboxy-4-[[(4S)-4-carboxy-4-(17-carboxyheptadecanoylamino)butanoyl]amino]butanoyl]amino]butanoyl]-[Aib2,Leu10,Glu15, Arg20,Glu21,Leu27,Lys28]-Glucagon amide] (H-H[Aib]QGTFTSDLSKYLESRRAREFVQWLLK([γGlu-γGlu-γGlu-C18 diacid])T-NH2; N-terminus assumed)"
3.9 nM,3%,"CC(C)C[C@H](NC(=O)[C@H](Cc1ccc(O)cc1)NC(=O)[C@H](CCCCN)NC(=O)[C@H](CO)NC(=O)[C@H](CC(C)C)NC(=O)[C@H](CC(=O)O)NC(=O)[C@H](CO)NC(=O)[C@@H](NC(=O)[C@H](Cc1ccccc1)NC(=O)[C@@H](NC(=O)CNC(=O)[C@H](CCC(N)=O)NC(=O)C1(NC(=O)[C@@H](N)Cc2c[nH]cn2)CCC1)[C@@H](C)O)[C@@H](C)O)C(=O)N[C@@H](CCC(=O)O)C(=O)N[C@@H](CCC(=O)O)C(=O)N[C@@H](CCCNC(=N)N)C(=O)N[C@@H](CCCNC(=N)N)C(=O)N[C@@H](C)C(=O)N[C@@H](CCCNC(=N)N)C(=O)N[C@@H](CC(=O)O)C(=O)N[C@@H](Cc1ccccc1)C(=O)N[C@H](C(=O)N[C@@H](CCC(N)=O)C(=O)N[C@@H](Cc1c[nH]c2ccccc12)C(=O)N[C@@H](CC(C)C)C(=O)N[C@@H](CC(C)C)C(=O)N[C@@H](CCCCNC(=O)CNC(=O)[C@H](CO)NC(=O)[C@H](CCC(=O)O)NC(=O)CNC(=O)[C@H](CO)NC(=O)CC[C@H](NC(=O)CC[C@H](NC(=O)CCCCCCCCCCCCCCCCC(=O)O)C(=O)O)C(=O)O)C(=O)N[C@H](C(N)=O)[C@@H](C)O)C(C)C [Example 16, N^ε28-[2-[[(2S)-2-[[(2S)-4-carboxy-2-[[2-[[(2S)-2-[[(4S)-4-carboxy-4-[[(4S)-4-carboxy-4-(17-carboxyheptadecanoylamino)butanoyl]amino]butanoyl]amino]-3-hydroxypropanoyl]amino]acetyl]amino]butanoyl]amino]-3-hydroxypropanoyl]amino]acetyl]-[Acb2,Leu10,Glu15,Glu16,Arg20,Leu27,Lys28]-Glucagon amide] (I: H-H[Ac4c]QGTFTSDLSKYLEERRARDFVQWLLKT-NH2 / II: {C18 diacid-γGlu-γGlu}-SGESG; amide I:28-II:C; N-terminus assumed)"
1.2 nM,,"CC(C)C[C@H](NC(=O)[C@H](Cc1ccc(O)cc1)NC(=O)[C@H](CCCCN)NC(=O)[C@H](CO)NC(=O)[C@H](CC(C)C)NC(=O)[C@H](CC(=O)O)NC(=O)[C@H](CO)NC(=O)[C@@H](NC(=O)[C@H](Cc1ccccc1)NC(=O)[C@@H](NC(=O)CNC(=O)[C@H](CCC(N)=O)NC(=O)C(C)(C)NC(=O)[C@@H](N)Cc1c[nH]cn1)[C@@H](C)O)[C@@H](C)O)C(=O)N[C@@H](CC(=O)O)C(=O)N[C@@H](CCCCNC(=O)CC[C@H](NC(=O)CC[C@H](NC(=O)COCCOCCNC(=O)COCCOCCNC(=O)CC[C@H](NC(=O)CCCCCCCCCCCCCCCCC(=O)O)C(=O)O)C(=O)O)C(=O)O)C(=O)N[C@@H](CCCNC(=N)N)C(=O)N[C@@H](CCCNC(=N)N)C(=O)N[C@@H](C)C(=O)N[C@@H](CCCNC(=N)N)C(=O)N[C@@H](CCC(=O)O)C(=O)N[C@@H](Cc1ccccc1)C(=O)N[C@H](C(=O)N[C@@H](CCC(N)=O)C(=O)N[C@@H](Cc1c[nH]c2ccccc12)C(=O)N[C@@H](CC(C)C)C(=O)N[C@@H](CC(C)C)C(=O)N[C@@H](CC(N)=O)C(=O)N[C@H](C(N)=O)[C@@H](C)O)C(C)C [Example 10, N^ε16-[(4S)-4-carboxy-4-[[(4S)-4-carboxy-4-[[2-[2-[2-[[2-[2-[2-[[(4S)-4-carboxy-4-(17-carboxyheptadecanoylamino)butanoyl]amino]ethoxy]ethoxy]acetyl]amino]ethoxy]ethoxy]acetyl]amino]butanoyl]amino]butanoyl]-[Aib2,Leu10,Lys16,Arg20,Glu21,Leu27]-Glucagon amide] (H-H[Aib]QGTFTSDLSKYLDK([γGlu-γGlu-AEEA-AEEA-γGlu-C18 diacid])RRAREFVQWLLNT-NH2; N-terminus assumed)"
